Data from patent US11066692B2, “Real-time monitoring” (PROMEGA CORPORATION, priority 2012, dated 2021).

How the values were obtained:
[1] = test system: reactive oxygen species (ROS) in A549 cells; test: Real-time monitoring of reactive oxygen species (ROS); format: cell-based; details: 200 μM, 10, 25 or 50 μM PBI-4759, 40 ng/ml NANOLUC
Procedure: A549 cells were plated at 1,000 cells/well into wells of a 384-well plate and incubated overnight. Then, either 10, 25, or 50 μM of a pro-furimazine hydrogen peroxide substrate, PBI-4759, and 40 ng/ml NANOLUC luciferase protein sensor were added to the cells. Menadione (200 μM), a known ROS inducer, or a vehicle control (DMSO) was added to the cells. Luminescence was monitored over time using a Tecan M1000 plate reader.

[2] = test system: caspase activation in A549 cells; test: Real-time monitoring of caspase activation; format: cell-based; details: 4 μM final concentration, 50 μM PBI-3741, 40 ng/ml NANOLUC
Procedure: A549 cells were plated at 1,000 cells/well into wells of a 384-well assay plate. 50 μM PBI-3741 (a pro-furimazine caspase substrate) and 40 ng/ml NANOLUC luciferase enzyme were added to the cells. To induce apoptosis, staurosporine was added to the cells at a 4 μM final concentration. The induction of apoptosis and activation of caspase were measured in real-time.

[3] = test system: Cardiomyocyte cells; test: Real-time measuring of drug induced changes in viability; format: cell-based; details: 200 μg/ml final, after multiple days of cell growth; 40 uM PBI-4600, 100 ng/ml NANOLUC
Procedure: Cardiomyocyte cells were plated and grown in media containing 40 uM PBI-4600 pro-substrate and 100 ng/ml NANOLUC luciferase protein sensor in a 37° C., 5% CO2 incubator. At various time points, luminescence was monitored on a Tecan M1000 plate reader. After multiple days of cell growth, digitonin was added to a final concentration of 200 μg/ml. Luminescence was read continually, starting immediately after digitonin addition.

[4] = test system: A549 cells; test: Measuring cell death in real-time; format: cell-based; details: 1% final concentration, A549 cells 1,000 cells/well; 40 μM PBI-4600, 100 ng/ml NANOLUC
Procedure: A549 cells were plated into wells of a 384-well plate at 1,000 cells/well in the presence of 40 μM PBI-4600 pro-substrate and 100 ng/ml NANOLUC luciferase protein sensor. The cells were incubated and the luminescence signal was monitored at various time points on a Tecan M1000 plate reader. Triton X-100 was then added to a final concentration of 1%, and compared to control cells that received media only. Luminescence was continually monitored.

[5] = Stability of pro-furimazine substrate PBI-4600 in cell culture media (HPLC purity); format: physicochemical; details: 50 μM in RPMI cell culture media, room temperature or 37° C., up to 190 hours
Procedure: PBI-4600 (50 μM) was incubated in RPMI cell culture media at room temperature (RT) or 37° C. for increasing time points, up to 190 hours. HPLC analysis was performed to determine the purity of PBI-4600 at various time points.

[6] = Protein sensor stability in cell culture; format: physicochemical; details: 40 ng/ml in A549 cell culture with 50 μM PBI-4600; signal compared with freshly added sensor
Procedure: A549 cells were plated at 250 cells/well into wells of a 384-well assay plate. 50 μM PBI-4600 pro-substrate and 40 ng/ml NANOLUC luciferase protein sensor were added to the cell culture and incubated for 72 hours. After incubation, 40 ng/ml NANOLUC luciferase protein sensor was added to the cell culture, and the signal was monitored 1.5 hours later.

Molecule: CC1=CC(=O)c2ccccc2C1=O [menadione, Menadione]
- time at which maximum luminescence signal was reached after addition [1]: 5 h

Molecule: CN[C@@H]1C[C@H]2O[C@@](C)([C@@H]1OC)n1c3ccccc3c3c4c(c5c6ccccc6n2c5c31)C(=O)NC4 [staurosporine]
- change in luminescence (caspase activation) during treatment [2]: increase in luminescence

Molecule: C[C@@H]1CC[C@@]2(OC1)O[C@H]1[C@@H](O)[C@H]3[C@@H]4CC[C@H]5C[C@@H](O[C@@H]6O[C@H](CO)[C@H](O[C@@H]7O[C@H](CO)[C@@H](O)[C@H](O[C@@H]8OC[C@@H](O)[C@H](O)[C@H]8O)[C@H]7O[C@@H]7O[C@H](CO)[C@H](O)[C@H](O[C@@H]8O[C@H](CO)[C@@H](O)[C@H](O)[C@H]8O)[C@H]7O)[C@H](O)[C@H]6O)[C@H](O)C[C@]5(C)[C@H]4CC[C@]3(C)[C@H]1[C@@H]2C [digitonin]
- change in luminescence signal (cell viability) after addition [3]: rapid decrease in signal

Molecule: Triton X-100
- change in luminescence signal (cell viability) after addition [4]: rapid decrease in signal

Molecule: CC1=C(C)C(=O)C(C(C)(C)CC(=O)N(C)CCN(C)C(=O)Oc2c(Cc3ccco3)nc3c(Cc4ccccc4)nc(-c4ccccc4)cn23)=C(C)C1=O [PBI-4600]
- purity of PBI-4600 (HPLC) after incubation [5]: greater than 90%

B1: NANOLUC luciferase: modified, enhanced luciferase enzyme from Oplophorus, Promega Corporation, SEQ ID NO: 1 (protein)
chain: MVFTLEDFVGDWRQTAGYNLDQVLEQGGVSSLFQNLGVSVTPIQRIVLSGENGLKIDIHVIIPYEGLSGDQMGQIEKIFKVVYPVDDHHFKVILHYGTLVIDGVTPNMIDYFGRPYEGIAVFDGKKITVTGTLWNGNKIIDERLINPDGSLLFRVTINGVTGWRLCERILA
- time stable in cell culture conditions [6]: at least 72 h
